Measurements published in patent EP0220873B1, “Fused bicyclic imides with psychotropic activity” (priority 1985, dated 1987).
Structures can show the parent of a compound that is named as a salt. Where two headings read alike, the source gives them in different places. Marks after values point to notes of the source that are not given here.

Legend:
avoidance responding [1] = assay: conditioned avoidance (shelf-jump response) test; type: in vivo, Male CD rats; settings: i.p., active dose
Description: Another test designed to determine the potential antipsychotic activity of the compounds of the invention is the conditioned avoidance (shelf-jump response) test.
This test is carried out as follows: Male CD rats (Charles River) maintained at approximately 400-450 gm body weight are used. Previously trained rats are placed in plexiglass experimental chambers divided into two sections; a main chamber (10 1/2" x 6 3/4" x 11 7/8" high) and an elevated chamber or shelf (5 7/8" x 6 7/8" x 5 3/4"). A moveable wall, controlled by a motor, determines whether the rat has access to the shelf at any time during the experiment. The experimental chamber also contains a house light and sonalert. A steel grid floor in the main chamber is wired for presentation of electric shock. Each trial consists of a fifteen-second warning tone (conditioned stimulus), continuing for an additional fifteen seconds accompanied by electric shock, (unconditioned stimulus). A response (jumping onto the exposed shelf of the upper chamber) occurring during the initial fifteen-second warning tone is considered an avoidance response, while a response occurring during shock delivery is considered an escape response. Trials are presented on a fixed interval schedule of one minute. The session consists of thirty-six trials. Animals are run twice weekly with control sessions always preceding a drug run, and with at least one day intervening. Compounds are administered i.p. or p.o. at appropriate pre-treatment times to a minimum of five rats at each dose level over a range of doses.
The following experimental parameters are recorded by computer: (1) the number of avoidance responses, (2) the number of escape responses, and (3) the number of trials in which no response occurred.
(§1) Response counts are summed over all subjects at a given dose. […] This number is expressed as a percentage of the total trials. Control performance is arbitrarily assigned a value of 100% for avoidance and the dose calculated to produce a 50% block in avoidance responding (AB₅₀) is obtained from a dose-effect regression line fitted by the method of least squares. Potential antipsychotic compounds suppress avoidance responding and increase escape responding.

[2] = target: T1, limbic D-2 dopamine receptor (Rattus norvegicus, UniProt P61169); assay: biochemical; type: binding, rats; settings: for inhibition at 1 µM: read-out: Limbic D-2 Binding, % inhibition at 1 µM; for Ki: Table 1, 0.3 nM 3H-spiroperidol, rat limbic brain tissue, read-out: Limbic D-2 Binding (KinM)
T1 construct: Limbic brain tissue (nucleus accumbens, septal area, olfactory tubercle) is dissected; from tissue; host or cells: rat limbic brain tissue (nucleus accumbens, septal area, olfactory tubercle) homogenate

[3] = target: T2, 5-HT-1A serotonin receptor (Rattus norvegicus, UniProt P19327); assay: ex vivo inhibition of 5-HT-1A serotonin receptor binding (3H-8-OH-DPAT, hippocampal membranes); design: species or system rats
T2 construct: Hippocampal tissue is dissected and homogenized on ice; from tissue; host or cells: rat hippocampal membrane homogenate
T2 sequence (P19327 1-422): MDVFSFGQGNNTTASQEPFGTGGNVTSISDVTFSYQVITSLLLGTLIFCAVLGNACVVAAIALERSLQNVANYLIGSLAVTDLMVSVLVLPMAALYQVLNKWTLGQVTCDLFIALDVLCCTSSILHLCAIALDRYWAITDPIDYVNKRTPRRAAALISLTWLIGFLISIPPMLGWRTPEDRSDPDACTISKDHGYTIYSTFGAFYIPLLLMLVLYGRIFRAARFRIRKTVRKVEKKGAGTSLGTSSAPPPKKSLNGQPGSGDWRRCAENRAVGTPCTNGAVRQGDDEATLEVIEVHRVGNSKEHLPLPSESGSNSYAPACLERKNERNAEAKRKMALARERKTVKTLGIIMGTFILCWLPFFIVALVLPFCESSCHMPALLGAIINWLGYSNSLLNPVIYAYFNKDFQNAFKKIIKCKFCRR
Description: The assay is carried out as follows: Several groups of rats (4 - 6 rats/group) are injected with test compound or the appropriate vehicle. Thirty minutes later, unless otherwise noted, rats are decapitated and their brains removed. Various brain regions are dissected and rapidly frozen and maintained at -70°C until used.
Hippocampal tissue is dissected and homogenized on ice in 40 vols of buffer (50 mM Tris HCl, pH = 7.7) using a Polytron homogenizer at setting 5 for 3 x 15 sec bursts. The homogenate is then centrifuged at 20,000 rpm (RC5-B; 50,000 g) and the supernatant discarded. The pellet is resuspended in 40 vols of the same buffer and incubated at 37°C for 10 minutes to aid in the removal of endogenous serotonin. The homogenate is then centrifuged (as above) and the supernatant discarded. The pellet is then resuspended in 100 vols of buffer B (50 mM Tris HCl, pH = 7.7 containing 0.1% ascorbate, 10 µM pargyline and 4 mM CaCl₂) and sonicated. An aliquot is taken for protein determination by the Lowry method and the remainder stored frozen at -70°C until used.
The homogenate (50 µl; 0.4-0.6 mg protein/sample) is incubated with 100 µl (1.5-1.8 nM) ³H-8-hydroxy-2-(di-n-propylamino)tetraline in a final volume of 2 ml of buffer for 10 minutes at 37°C. At the end of the incubation, 3 ml of cold buffer A are added to each tube, and the contents rapidly filtered through Whatman GF/B glass filters. The filters are then rapidly washed 2 times with 3 ml of the same buffer, placed in scintillation vials, and shaken for 15 minutes with 10 ml of Hydrofluor (National Diagnostics)scintillation cocktail. The vials are then counted in a Packard 460 CD scintillation counter.
Specific binding is calculated for each of the treatment protocols and is defined as total binding less binding in the presence of excess unlabeled serotonin (1 µM). Specific binding obtained in vehicle-treated rats is compared to that obtained in animals receiving a single or various doses of test compound and expressed as percent of control. […] Linear regression analysis then yields a straight line with 95% confidence limits from which an IC₅₀ can be inversely predicted.

avoidance responding [4] = assay: conditioned avoidance (discrete trial) test; type: in vivo, Male CD rats; settings: Rattus norvegicus, po; footnote 1 = AB50 value; read-out: Active at mg/kg (AB50 value)
Description: The antipsychotic activity of the compounds of the invention is assessed via the conditioned avoidance (discrete trial) test. This test has excellent clinical correlation for antipsychotic activity.
The test is carried out as follows: Male CD rats (Charles River) maintained at approximately 400-450 gm body weight are used. Rats trained previously are placed in plexiglass experimental chambers equipped with a response lever, house light, and sonalert. A steel grid floor is wired for presentation of electric shock. Each trial consists of a fifteen-second warning tone (conditioned stimulus), continuing for an additional fifteen seconds accompanied by electric shock, (unconditioned stimulus). The rat can terminate a trial at any point by depression of the response lever. As response during the initial fifteen-second warning tone ends the trial before shock delivery and is considered avoidance response, while a response occurring during shock delivery is an escape response. Trials are presented on a variable interval schedule of two minutes. The session consists of sixty trials. Animals are run two to three times weekly with control sessions always preceding a drug run, and with at least one day intervening, compounds are administered i.p. or p.o. at appropriate pre-treatment times to a minimum of five to six rats at each dose level over a range of doses.
as §1

[5] = Table 4, 3H-8-OH-DPAT, rat hippocampal tissue, read-out: Inhibition Constant (Ki nm)

T1 sequence (P61169 whole entry): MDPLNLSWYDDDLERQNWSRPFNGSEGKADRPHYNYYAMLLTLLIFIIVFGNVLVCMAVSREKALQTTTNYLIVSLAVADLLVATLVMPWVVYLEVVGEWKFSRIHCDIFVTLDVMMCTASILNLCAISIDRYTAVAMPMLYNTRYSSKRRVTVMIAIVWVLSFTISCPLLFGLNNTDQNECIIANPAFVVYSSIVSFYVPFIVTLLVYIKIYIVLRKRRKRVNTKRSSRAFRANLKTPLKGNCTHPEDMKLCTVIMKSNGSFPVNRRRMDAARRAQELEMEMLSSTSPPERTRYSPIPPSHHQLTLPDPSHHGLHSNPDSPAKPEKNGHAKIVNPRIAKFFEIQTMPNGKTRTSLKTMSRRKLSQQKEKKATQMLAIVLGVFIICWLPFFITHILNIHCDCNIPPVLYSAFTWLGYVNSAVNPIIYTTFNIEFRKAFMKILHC

inhibition at 1 µM [2]	inhibition at 1 µM [3]	Ki [3, 5]	Ki [2]	Compound	Active at mg/kg (avoidance responding [1])	ED50 (avoidance responding [4])	Ki [3]
13%	46%	–	–	O=C1C2C3C=CC(C4C=CC43)C2C(=O)N1CCCCN1CCN(c2cnccn2)CC1 (centres unmarked) [Example 23, 3a,4,4a,6a,7,7a-Hexahydro-2-[4-[4-(2-pyrazinyl)-1-piperazinyl]butyl]-4,7-etheno-1H-cyclobut[f]isoindole-1,3-(2H)-dione, fumarate(1:1)]	40 (i.p.) mg/kg	–	–
1%	74%	–	–	O=C1C2C3C=CC(C3)C2C(=O)N1CCCCN1CCN(c2cncc(Cl)n2)CC1 (centres unmarked) [Example 13, 3a,4,7,7a,-Tetrahydro-2-[4-[4-(6-chloro-2-pyrazinyl)-1-piperazinyl]butyl]-4,7-methano-1H-isoindole-1,3(2H)-dione hydrochloride hydrate]	40 (i.p.) mg/kg	39.7 mg/kg	–
38%	68%	–	–	O=C1C2C3C=CC(C4CC34)C2C(=O)N1CCCCN1CCN(c2cnccn2)CC1 (centres unmarked) [Example 24, 4,4a,5,5a,6,6a-Hexahydro-2-[4-[4-(2-pyrazinyl)-1-piperazinyl]butyl]-4,6-ethenocycleprop[f]isoindole-1,3-(2H,3aH)-dione, dihydrochloride, hydrate]	40 (i.p.) mg/kg	49.6 mg/kg	–
53%	–	12 nM	–	O=C1C2C3C=CC(CCC3)C2C(=O)N1CCCCN1CCN(c2ncccn2)CC1 (centres unmarked) [Example 21, 4,5,6,7,8,8a-Hexahydro-2-[4-[4-(2-pyrimidinyl)-1-piperazinyl]butyl]-4,8-ethenocyclohepta[c]pyrrole-1,3(2H,3aH)-dione, dihydrochloride, hemihydrate]	40 (i.p.) mg/kg	–	–
–	–	13.9 nM	140 nM	O=C1C2C3CCC(C4CC43)C2C(=O)N1CCCCN1CCN(c2ncccn2)CC1 (centres unmarked) [Example 7, 2-[4-[4-(2-Pyrimidinyl)-1-piperazinyl]butyl]octahydro-4,6-ethanocycloprop[f]isoindole-1,3-(2H, 3aH)-dione, dihydrochloride, dihydrate]	40 (i.p.) mg/kg	–	–
–	–	162 nM	690 nM	O=C1C2C3C=CC(C4CC34)C2C(=O)N1CCCCN1CCN(c2cncc(Cl)n2)CC1 (centres unmarked) [Example 1, 2-[4-[4-(6-Chloro-2-pyrazinyl)-1-piperazinyl]butyl]hexahydro-4,6-ethenocycloprop[f]isoindole-1,3(2H,3aH)-dione, dihydrochloride, sesquihydrate]	40 (i.p.)* mg/kg	40 mg/kg	–
–	–	17 nM	345 nM	O=C1C2C3C=CC(C4C=CC43)C2C(=O)N1CCCCN1CCN(c2ncccn2)CC1 (centres unmarked) [Example 3, 3a,4,4a,6a,7,7a-Hexahydro-2-[4-[4-(2-pyrimidinyl)-1-piperazinyl]butyl]-4,7-etheno-1H-cyclobut[f]isoindole-1,3(2H)-dione, dihydrochloride, sesquihydrate]	40 (i.p.) mg/kg	13.4 mg/kg	–
–	–	122 nM	345 nM	O=C1C2C3C=CC(CCCC3)C2C(=O)N1CCCCN1CCN(c2cncc(Cl)n2)CC1 (centres unmarked) [Example 8, 2-[4-[4-(6-Chloro-2-pyrazinyl)-1-piperazinyl]butyl]octahydro-4,9-etheno-1H-cycloocta[c]pyrrole-1,3(2H)-dione, dihydrochloride, sesquihydrate]	40 (i.p.) mg/kg	–	–
41%	–	41 nM	–	O=C1C2C3C=CC(C4CCC34)C2C(=O)N1CCCCN1CCN(c2cnccn2)CC1 (centres unmarked) [Example 27, 3a,4,4a,5,6,6a,7,7a-Octahydro-2-[4-[4-(2-pyrazinyl)-1-piperazinyl]butyl]-4,7-etheno-1H-cyclobut[f]isoindole-1,3(2H)-dione, dihydrochloride, hemihydrate]	40 (i.p.) mg/kg	–	–

Compound	inhibition at 1 µM [2]	inhibition at 1 µM [3]	Ki [3, 5]	Ki [2]	Active at mg/kg (avoidance responding [1])	ED50 (avoidance responding [4])	Ki [3]
O=C1C2C3C=CC(C4CCC34)C2C(=O)N1CCCCN1CCN(c2ncccn2)CC1 (centres unmarked) [Example 16, 2-[4-[4-(2-Pyrimidinyl)-1-piperazinyl]butyl]-octahydro-4,7-etheno-1H-cyclobut[f]isoindole-1,3-(2H)-dione, dihydrochloride, hydrate]	–	–	–	85 nM	40 (i.p.) mg/kg	47.4 mg/kg	1.1 nM
